Measurements published in US7671091B2, “Penis enlargement” (priority 2004, dated 2010).

What was measured:
human penis [1] = assay: Permanent increase in erect penis length and girth after repeated intracavernosal vasodilator treatment of male patients; type: in vivo
Source text: The term “penis length” refers to the maximum length of the penis, as measured along the dorsal surface of the penis from the symphysis pubis to the tip or end of the glans penis when the glans penis is pulled manually and put under tension. Preferably, the measurement is taken when the penis is fully erect.
The term “penis girth” refers to the largest measured value obtained for circumference of the erect penis, as measured in the midshaft region (middle third). Preferably, the measurement is taken when the penis is fully erect.
An engorgement is deemed “cumulative prolonged” when an erectile response lasts for at least 3 hours over a 24 hours period.
(§1) Therefore, a “cumulative prolonged engorgement” would be an erectile response that is over 40% for a period of at least 3 hours in a 24 hours period.
A patient was treated with intracavernosal injections of a vasodilator, prostaglandin E1, on a regular basis (approximately four to five times per week) over an 18 month treatment period. […] The quantity of medication was adjusted from time to time in accordance with the patient's response, which was monitored at least weekly. […]
A patient was treated with intracavernosal injections of a quadruple mix of the vasodilators prostaglandin E1, Atropine, Chlorpromazine and Papavarine on a regular basis (approximately two to four times per week) over a 4-month treatment period. […] The quantity of medication was adjusted in accordance with the patient's response. The potentiator dihydrotestosterone 5% ointment was administered […] starting two weeks before starting the IC injections of the vasodilators Atropine, Chlorpromazine and Papavarine and prostaglandin.

human penis [2] = settings: in vivo
Experimental: as §1
(§2) The quantity of medication was adjusted in accordance with the patient's response.
as §2

[3] = Example 1: patient, 18-month treatment

SMILES	increase in erect penis length (human penis [1]; Example 6: patient, 4 months, frequently with oral Viagra, dihydrotestosterone gel) [%]	erect penis length after treatment (human penis [1]; Example 6: patient, intracavernosal 2-4 times per week, 4 months, frequently combined with oral Viagra, potentiator dihydrotestosterone gel, from 5.2 inches) [inches]	increase in erect penis girth (human penis [1]; [3]) [%]	increase in erect penis length (human penis [1]; [3]) [%]	fully erect penis girth after treatment (human penis [1]; Example 1: patient, 18-month treatment, from 3.7 inches) [inches]	fully erect penis length after treatment (human penis [1]; Example 1: patient, intracavernosal, approx. 4-5 times per week, 18-month treatment, from 5.8 inches) [inches]	increase in erect penis length (human penis [1]; Example 10: patient, 3 months, with daily subcutaneous dihydrotestosterone) [%]	erect penis length after treatment (human penis [1]; Example 10: patient, two separate IC injections per treatment day, 2-5 times per week, 3 months, dihydrotestosterone 15 mg subcutaneously into the penis daily, from 6.3 inches) [inches]	tolerability (sensitivity) (human penis [2])
Cc1ccc(N(CC2=NCCN2)c2cccc(O)c2)cc1 [phentolamine]	~25	6.5	–	–	–	–	–	–	–
CCCCC[C@H](O)/C=C/[C@H]1[C@H](O)CC(=O)[C@@H]1CCCCCCC(=O)O [prostaglandin E1]	–	–	~56	~48	5.8	8.6	~13	7.1	aching and pain at higher doses
